In patent US11395857B2, “Radiolabeled melanocortin 1 receptor-specific alpha-melanocyte-stimulating hormone analogues for imaging or therapy” (PROVINCIAL HEALTH SERVICES AUTHORITY, priority 2018, dated 2022):
Like-named read-outs stand apart in the source and are kept apart here.

Tests used:
[1] = Biodistribution of 177Lu-labeled αMSH analogues in mice bearing B16F10 mouse melanoma; type: in vivo, C57BL/6J mice; details: mouse, iv, total radioactivity, C57BL/6J mice, B16F10 melanoma
Protocol: (§1) The B16-F10 mouse melanoma cells were cultured and inoculated in mice as described in Example 1.
(§2) For biodistribution studies, approximately 1-2 MBq of ^177Lu-labeled αMSH analogues via tail vein under anesthesia. At 1, 4, 24, and 120 h p.i., the mice were euthanized by CO2 inhalation. Organs/tissues were harvested and the radioactivity was measured as described in Example 1.

[2] = test system: B16F10 mouse melanoma; assay: as above; type: in vivo, C57BL/6J mice; details: C57BL/6J mice, B16F10 melanoma
Protocol: as §1, §2

SMILES: CCCC[C@H](NC(=O)CN1CCC(NC(=O)[C@H](CCCCNC(=O)CN2CCN(CC(=O)O)CCN(CC(=O)O)CCN(CC(=O)O)CC2)NC(=O)[C@H](CCC(=O)O)NC(=O)CCCc2ccc(I)cc2)CC1)C(=O)N[C@H]1CC(=O)NCCCC[C@@H](C(N)=O)N(C)C(=O)[C@H](Cc2c[nH]c3ccccc23)NC(=O)[C@H](CCCNC(=N)N)N(C)C(=O)[C@@H](Cc2ccccc2)NC(=O)[C@H](Cc2c[nH]cn2)NC1=O [^177Lu-labeled CCZ01118, metal not drawn]
- tissue uptake at 1 h ([1]; male, seminal glands, 1 h p.i., read-out: Biodistribution, Seminal glands): 0.5 ± 0.11 %ID/g
- tissue uptake at 4 h ([1]; male, seminal glands, 4 h p.i., read-out: Biodistribution, Seminal glands): 0.15 ± 0.06 %ID/g
- tissue uptake at 24 h ([1]; male, seminal glands, 24 h p.i., read-out: Biodistribution, Seminal glands): 0.04 ± 0.01 %ID/g
- tissue uptake at 120 h ([1]; male, seminal glands, 120 h p.i., read-out: Biodistribution, Seminal glands): 0.02 ± 0.01 %ID/g
- tissue uptake at 1 h ([1]; male, testes, 1 h p.i., read-out: Biodistribution, Testes): 1.07 ± 0.11 %ID/g
- tissue uptake at 4 h ([1]; male, testes, 4 h p.i., read-out: Biodistribution, Testes): 0.4 ± 0.14 %ID/g
- tissue uptake at 24 h ([1]; male, testes, 24 h p.i., read-out: Biodistribution, Testes): 0.16 ± 0.02 %ID/g
- tissue uptake at 120 h ([1]; male, testes, 120 h p.i., read-out: Biodistribution, Testes): 0.1 ± 0.01 %ID/g
- tissue uptake at 1 h ([1]; adrenal glands, 1 h p.i., read-out: Biodistribution, Adrenal glands): 2.9 ± 1.51 %ID/g
- tissue uptake at 4 h ([1]; adrenal glands, 4 h p.i., read-out: Biodistribution, Adrenal glands): 0.54 ± 0.48 %ID/g
- tissue uptake at 24 h ([1]; adrenal glands, 24 h p.i., read-out: Biodistribution, Adrenal glands): 0.2 ± 0.09 %ID/g
- tissue uptake at 120 h ([1]; adrenal glands, 120 h p.i., read-out: Biodistribution, Adrenal glands): 0.18 ± 0.06 %ID/g
- tissue uptake at 1 h ([1]; blood, 1 h p.i., read-out: Biodistribution, Blood): 6.87 ± 0.88 %ID/g
- tissue uptake at 4 h ([1]; blood, 4 h p.i., read-out: Biodistribution, Blood): 1.41 ± 0.6 %ID/g
- tissue uptake at 24 h ([1]; blood, 24 h p.i., read-out: Biodistribution, Blood): 0.05 ± 0.02 %ID/g
- tissue uptake at 120 h ([1]; blood, 120 h p.i., read-out: Biodistribution, Blood): 0.01 %ID/g
- tissue uptake at 1 h ([1]; bone, 1 h p.i., read-out: Biodistribution, Bone): 0.96 ± 0.18 %ID/g
- tissue uptake at 4 h ([1]; bone, 4 h p.i., read-out: Biodistribution, Bone): 0.29 ± 0.11 %ID/g
- tissue uptake at 24 h ([1]; bone, 24 h p.i., read-out: Biodistribution, Bone): 0.13 ± 0.03 %ID/g
- tissue uptake at 120 h ([1]; bone, 120 h p.i., read-out: Biodistribution, Bone): 0.12 ± 0.04 %ID/g
- tissue uptake at 1 h ([1]; brain, 1 h p.i., read-out: Biodistribution, Brain): 0.13 ± 0.01 %ID/g
- tissue uptake at 4 h ([1]; brain, 4 h p.i., read-out: Biodistribution, Brain): 0.03 ± 0.02 %ID/g
- tissue uptake at 24 h ([1]; brain, 24 h p.i., read-out: Biodistribution, Brain): 0.01 %ID/g
- tissue uptake at 120 h ([1]; brain, 120 h p.i., read-out: Biodistribution, Brain): 0.01 %ID/g
- tissue uptake at 1 h ([1]; fat, 1 h p.i., read-out: Biodistribution, Fat): 0.43 ± 0.08 %ID/g
- tissue uptake at 4 h ([1]; fat, 4 h p.i., read-out: Biodistribution, Fat): 0.12 ± 0.03 %ID/g
- tissue uptake at 24 h ([1]; fat, 24 h p.i., read-out: Biodistribution, Fat): 0.03 ± 0.01 %ID/g
- tissue uptake at 120 h ([1]; fat, 120 h p.i., read-out: Biodistribution, Fat): 0.02 ± 0.01 %ID/g
- tissue uptake at 1 h ([1]; heart, 1 h p.i., read-out: Biodistribution, Heart): 1.93 ± 0.16 %ID/g
- tissue uptake at 4 h ([1]; heart, 4 h p.i., read-out: Biodistribution, Heart): 0.45 ± 0.19 %ID/g
- tissue uptake at 24 h ([1]; heart, 24 h p.i., read-out: Biodistribution, Heart): 0.08 ± 0.01 %ID/g
- tissue uptake at 120 h ([1]; heart, 120 h p.i., read-out: Biodistribution, Heart): 0.05 %ID/g
- tissue uptake at 1 h ([1]; intestine, 1 h p.i., read-out: Biodistribution, Intestine): 1.2 ± 0.2 %ID/g
- tissue uptake at 4 h ([1]; intestine, 4 h p.i., read-out: Biodistribution, Intestine): 1.53 ± 2.04 %ID/g
- tissue uptake at 24 h ([1]; intestine, 24 h p.i., read-out: Biodistribution, Intestine): 0.21 ± 0.05 %ID/g
- tissue uptake at 120 h ([1]; intestine, 120 h p.i., read-out: Biodistribution, Intestine): 0.1 ± 0.04 %ID/g
- tissue uptake at 1 h ([1]; kidneys, 1 h p.i., read-out: Biodistribution, Kidneys): 12 ± 0.83 %ID/g
- tissue uptake at 4 h ([1]; kidneys, 4 h p.i., read-out: Biodistribution, Kidneys): 12.7 ± 3.58 %ID/g
- tissue uptake at 24 h ([1]; kidneys, 24 h p.i., read-out: Biodistribution, Kidneys): 6.32 ± 0.43 %ID/g
- tissue uptake at 120 h ([1]; kidneys, 120 h p.i., read-out: Biodistribution, Kidneys): 1.43 ± 0.31 %ID/g
- tissue uptake at 1 h ([1]; liver, 1 h p.i., read-out: Biodistribution, Liver): 3.65 ± 0.25 %ID/g
- tissue uptake at 4 h ([1]; liver, 4 h p.i., read-out: Biodistribution, Liver): 3.58 ± 0.85 %ID/g
- tissue uptake at 24 h ([1]; liver, 24 h p.i., read-out: Biodistribution, Liver): 2.59 ± 0.31 %ID/g
- tissue uptake at 120 h ([1]; liver, 120 h p.i., read-out: Biodistribution, Liver): 1.25 ± 0.51 %ID/g
- tissue uptake at 1 h ([1]; lungs, 1 h p.i., read-out: Biodistribution, Lungs): 6.71 ± 3.02 %ID/g
- tissue uptake at 4 h ([1]; lungs, 4 h p.i., read-out: Biodistribution, Lungs): 2.34 ± 0.63 %ID/g
- tissue uptake at 24 h ([1]; lungs, 24 h p.i., read-out: Biodistribution, Lungs): 0.33 ± 0.08 %ID/g
- tissue uptake at 120 h ([1]; lungs, 120 h p.i., read-out: Biodistribution, Lungs): 0.14 ± 0.08 %ID/g
- tissue uptake at 1 h ([1]; muscle, 1 h p.i., read-out: Biodistribution, Muscle): 0.75 ± 0.09 %ID/g
- tissue uptake at 4 h ([1]; muscle, 4 h p.i., read-out: Biodistribution, Muscle): 0.18 ± 0.09 %ID/g
- tissue uptake at 24 h ([1]; muscle, 24 h p.i., read-out: Biodistribution, Muscle): 0.03 ± 0.01 %ID/g
- tissue uptake at 120 h ([1]; muscle, 120 h p.i., read-out: Biodistribution, Muscle): 0.02 %ID/g
- tissue uptake at 1 h ([1]; pancreas, 1 h p.i., read-out: Biodistribution, Pancreas): 1.13 ± 0.24 %ID/g
- tissue uptake at 4 h ([1]; pancreas, 4 h p.i., read-out: Biodistribution, Pancreas): 0.31 ± 0.08 %ID/g
- tissue uptake at 24 h ([1]; pancreas, 24 h p.i., read-out: Biodistribution, Pancreas): 0.08 ± 0.02 %ID/g
- tissue uptake at 120 h ([1]; pancreas, 120 h p.i., read-out: Biodistribution, Pancreas): 0.05 ± 0.01 %ID/g
- tissue uptake at 1 h ([1]; spleen, 1 h p.i., read-out: Biodistribution, Spleen): 2.06 ± 0.21 %ID/g
- tissue uptake at 4 h ([1]; spleen, 4 h p.i., read-out: Biodistribution, Spleen): 1.02 ± 0.27 %ID/g
- tissue uptake at 24 h ([1]; spleen, 24 h p.i., read-out: Biodistribution, Spleen): 0.64 ± 0.09 %ID/g
- tissue uptake at 120 h ([1]; spleen, 120 h p.i., read-out: Biodistribution, Spleen): 0.35 ± 0.15 %ID/g
- tissue uptake at 1 h ([1]; stomach, 1 h p.i., read-out: Biodistribution, Stomach): 0.74 ± 0.18 %ID/g
- tissue uptake at 4 h ([1]; stomach, 4 h p.i., read-out: Biodistribution, Stomach): 2.33 ± 4.11 %ID/g
- tissue uptake at 24 h ([1]; stomach, 24 h p.i., read-out: Biodistribution, Stomach): 0.42 ± 0.13 %ID/g
- tissue uptake at 120 h ([1]; stomach, 120 h p.i., read-out: Biodistribution, Stomach): 0.2 ± 0.09 %ID/g
- tissue uptake at 1 h ([1]; thyroid, 1 h p.i., read-out: Biodistribution, Thyroid): 2.47 ± 0.26 %ID/g
- tissue uptake at 4 h ([1]; thyroid, 4 h p.i., read-out: Biodistribution, Thyroid): 1.66 ± 0.42 %ID/g
- tissue uptake at 24 h ([1]; thyroid, 24 h p.i., read-out: Biodistribution, Thyroid): 1.59 ± 0.15 %ID/g
- tissue uptake at 120 h ([1]; thyroid, 120 h p.i., read-out: Biodistribution, Thyroid): 1.03 ± 0.24 %ID/g
- tissue to tissue ratio at 1 h ([1]; tumour/blood, 1 h p.i., read-out: Tumour/blood): 3.58 ± 0.31
- tissue to tissue ratio at 4 h ([1]; tumour/blood, 4 h p.i., read-out: Tumour/blood): 24.3 ± 9.37
- tissue to tissue ratio at 24 h ([1]; tumour/blood, 24 h p.i., read-out: Tumour/blood): 397 ± 123
- tissue to tissue ratio at 120 h ([1]; tumour/blood, 120 h p.i., read-out: Tumour/blood): 339 ± 149
- tissue to tissue ratio at 1 h ([1]; tumour/kidney, 1 h p.i., read-out: Tumour/kidney): 2.04 ± 0.15
- tissue to tissue ratio at 4 h ([1]; tumour/kidney, 4 h p.i., read-out: Tumour/kidney): 2.47 ± 0.8
- tissue to tissue ratio at 24 h ([1]; tumour/kidney, 24 h p.i., read-out: Tumour/kidney): 2.91 ± 0.2
- tissue to tissue ratio at 120 h ([1]; tumour/kidney, 120 h p.i., read-out: Tumour/kidney): 1.89 ± 0.37
- tissue to tissue ratio at 1 h ([1]; tumour/muscle, 1 h p.i., read-out: Tumour/muscle): 32.9 ± 2.98
- tissue to tissue ratio at 4 h ([1]; tumour/muscle, 4 h p.i., read-out: Tumour/muscle): 194 ± 82.7
- tissue to tissue ratio at 24 h ([1]; tumour/muscle, 24 h p.i., read-out: Tumour/muscle): 556 ± 108
- tissue to tissue ratio at 120 h ([1]; tumour/muscle, 120 h p.i., read-out: Tumour/muscle): 173 ± 19
- excreta dose per gram or mL at 1 h ([1]; urine, 1 h p.i.): 158 ± 83.1 %ID/g
- excreta dose per gram or mL at 4 h ([1]; urine, 4 h p.i.): 124 ± 8.4 %ID/g
- excreta dose per gram or mL at 24 h ([1]; urine, 24 h p.i.): 4.39 ± 2.89 %ID/g
- excreta dose per gram or mL at 120 h ([1]; urine, 120 h p.i.): 1.11 ± 0.72 %ID/g
- Biodistribution, B16F10 tumour ([2]; 1 h p.i.): 24.4 ± 1.76 % ID/g
- Biodistribution, B16F10 tumour ([2]; 4 h p.i.): 29.7 ± 5.23 % ID/g
- Biodistribution, B16F10 tumour ([2]; 24 h p.i.): 18.4 ± 1.35 % ID/g
- Biodistribution, B16F10 tumour ([2]; 120 h p.i.): 2.63 ± 0.21 % ID/g
